Like-named read-outs stand apart in the source and are kept apart here.
Assays:
[1] = tested on: COLON ADENOCARCINOMA-26/A; type: in vivo, murine; details: Balb/C female mice
Text: (§1) Inhibition of tumors transplanted into mice is an accepted procedure for studying the efficacy of antitumor agents (Corbett, et al., In vivo Methods for Screening and Preclinical Testing; Use of rodent solid tumors for drug discovery., In: Anticancer Drug Development Guide: Preclinical Screening, Clinical Trials, and Approval, B. Teicher (ed), Humana Press Inc., Totowa, N.J., Chapter 5, pages 75-99 (1997); (Corbett, et al., Int. J. Pharmacog., 33, Supplement, 102-122 (1995)). Murine tumors or human xenographs were implanted essentially as described by Corbett in In vivo Methods for Screening and Preclinical Testing; Use of rodent solid tumors for drug discovery. Briefly, the murine tumor or human xenograph was implanted subcutaneously using either 12-gauge trocar implants or counted number of cells. The location for the trocar insertion is midway between the axillary and inguinal region along the side of the mouse. The trocar is slipped approximately ¾ of an inch subcutaneously up toward the axilla before discharging the tumor fragment, and pinching the skin as the trocar is removed. Alternatively, human tumor cells prepared from a […] of donor tumors (5×10^6 cells) were implanted subcutaneously in a hind-leg of a male or female nude mouse (Charles River). Either a test compound in vehicle or vehicle alone was administered by intravenous bolus injection (iv), intraperitoneal injection (ip), or oral gavage (po). Each treatment group, as well as a group of untreated control animals, consisted of five animals per group in each experiment. Subcutaneous tumor response was monitored by tumor volume measurement performed twice each week over the course of the experiment (60-120 days). Body weights were taken as a general measure of toxicity. The subcutaneous tumor data were analyzed by determining the median tumor weight for each treatment group over the course of the experiment and calculating the tumor growth delay as the difference in days for the treatment versus the control tumors to reach a volume of either 500 or 1000 mm^3.
(§2) Cryptophycin-309 (309) was tested against a variety of murine and human tumors substantially as described supra. Cryptophycin-55 glycinate (55-GLY), Taxol, and Adriamycin (Adria) were also included in certain tests for purposes of comparison. Cryptophycin 55 glycinate is known in the art (WO 98/08505, Example 9) and has the following structure: [drawing 9]
(§3) Tumor Weight(mg)=(a×b^2)/2 where a=tumor length (mm) and b=tumor width (mm).
(§4) Tumor Growth Delay=T−C where T is the median time (days) required for the treatment group tumors to reach a predetermined size, and C is the median time (days) for the control group tumors to reach the same size. Tumor-free survivors are excluded from this calculation, and are tabulated separately (Tumor Free).
(§5) Log Kill=Tumor Growth Delay/(3.32)(Td)
(§6) where Tumor Growth Delay is as previously defined and Td is tumor volume doubling time (days), estimated from the best fit straight line from a log-linear growth plot of the control group of tumors in exponential growth (100-800 mg range)
(§7) %T/C mass—The treatment and control groups are measured when the control group tumors reach approximately 700 to 1200 mg in size (median group). The median tumor weight of each group is determined (including zeros). The T/C value in percent is an indication of antitumor effectiveness. A T/C≦42% is considered significant antitumor activity. A T/C<10% is considered to indicate highly significant antitumor activity.
(§8) Body Weight Loss Nadir—A body weight loss nadir (mean of group) of greater than 20% or drug deaths greater than 20% are considered to indicate an excessively toxic dosage in single course trials.
(§9) Activity Rating—the Activity Rating is derived from the Log Kill according to the following table: […]

[2] = tested on: MAMMARY ADENOCARCINOMA-17/ADR/Resist.; type: in vivo, murine; details: IV 30 mg/kg/inj days 1,3,5,7,9; total dose 150 mg/kg; C3H female mice
Text: as §1, §2, §3, §4, §5, §6, §7, §8, §9

[3] = tested on: MAMMARY ADENOCARCINOMA-16/C/Adr; test: Early stage murine mammary adenocarcinoma-16/C/Adr subcutaneous tumor assay; type: in vivo; details: IV 20 mg/kg/inj days 1,3,5,7,9; total dose 100 mg/kg; C3H female mice
Text: as §1, §2, §3, §4, §5, §6, §7, §8, §9

[4] = IV 15 mg/kg/inj days 1,3,5,7,9, total dose 75 mg/kg
[5] = IV 23 mg/kg/inj days 1,3,5,7,9, total dose 115 mg/kg
[6] = IV 35 mg/kg/inj days 1,3,5,7,9, total dose 175 mg/kg

Structure (SMILES): COc1ccc(C[C@H]2NC(=O)/C=C/C[C@@H]([C@H](C)[C@@H](OC(=O)CN)[C@@H](Cl)c3ccccc3)OC(=O)[C@H](CC(C)(C)C)OC(=O)[C@H](C)CNC2=O)cc1Cl [Cryptophycin 309, Cryptophycin-309]
- % T/C MASS [1, 4]: 14%
- ACTIVITY RATING [1, 4]: + (0.7-1.2)
- DRUG DEATHS [1, 4]: 0/5
- GROWTH DELAY [1, 4]: 6.65 days
- LOG KILL [1, 4]: 1.2
- MEDIAN TUMOR WEIGHT [1, 4]: 126 mg
- % T/C MASS [1, 5]: 0%
- ACTIVITY RATING [1, 5]: +++ (2.0-2.8)
- DRUG DEATHS [1, 5]: 0/5
- GROWTH DELAY [1, 5]: 12.75 days
- LOG KILL [1, 5]: 2.3
- MEDIAN TUMOR WEIGHT [1, 5]: 0 mg
- % T/C MASS [1, 6]: 0%
- ACTIVITY RATING [1, 6]: +++ (2.0-2.8)
- DRUG DEATHS [1, 6]: 0/5
- GROWTH DELAY [1, 6]: 15.25 days
- LOG KILL [1, 6]: 2.7
- MEDIAN TUMOR WEIGHT [1, 6]: 0 mg
- % T/C MASS [2]: 0%
- ACTIVITY RATING [2]: ++++ (>2.8)
- DRUG DEATHS [2]: 0/5
- GROWTH DELAY [2]: 10.75 days
- LOG KILL [2]: 3.23
- MEDIAN TUMOR WEIGHT [2]: 0 mg
- % T/C MASS [3]: 0%
- ACTIVITY RATING [3]: ++++ (>2.8)
- DRUG DEATHS [3]: 0/5
- GROWTH DELAY [3]: 11 days
- LOG KILL [3]: 3.0
- MEDIAN TUMOR WEIGHT [3]: 0 mg

From US6747021B2, “Cryptophycin compound” (Eli Lilly and Company, priority 2000, dated 2004)
